A word on the IC50: it is the midpoint of a concentration-inhibition curve.

In the assay the test system is S. Typhimurium GFP reporter counter-screen, fluorescence, 4 h. The experiment in a line: nmpC-GFP reporter counter-screen in S. Typhimurium, dose response, counter-screen for PhoP regulon inhibitor project, Salmonella Typhimurium, GFP fluorescence (AID 2401).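 Further: S. typhimurium with Mg-insensitive nmpC-GFP reporter grown at 10 µM Mg2+; drop in reporter fluorescence reflects general culture growth inhibition.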 In general terms: A counterscreen serves to expose hits that act by an unwanted route or on another target.
As for `Nc1ccc2c(c1)C(=O)C(=O)c1ccccc1-2`, the IC50 was 11 µM. With `CCOC(=O)Cc1csc(NC(=O)NC2(C(F)(F)F)Oc3cc(Cl)c(Cl)cc3O2)n1` the figure was 74.6 µM. With `COc1ccc(C(=O)Cn2nc(CNc3ccc(Br)cc3)[n+]3c2CCCCC3)cc1` the figure was 80.8 µM; with `CCCCCCCCn1c2c(c(=N)c3ccccc31)CCC2`, 38.9 µM. On to `Cc1ccc(C(C[N+](=O)[O-])c2c(-c3ccccc3O)[nH][nH]c2=O)cc1` (stereo not drawn), for which the IC50 was 14.9 µM. With `N=c1c2c(n(Cc3ccc(Br)cc3)c3c1CCC3)CCCC2` the figure was 132 µM; with `O=C(N/N=C/c1cc(Cl)ccc1O)c1ccncc1`, 20.6 µM. With `Cc1ccc(Nc2c3c(nc4ccccc24)CCC3)cc1` the figure was 122 µM. With `C/C(=N\Nc1ncnc2sc(C)c(C)c12)c1ccccn1` the figure was 26.4 µM; with `CCn1cc(C(=O)O)c(=O)c2cc(F)c(N3CCN(C(=S)NC(=O)c4ccc(F)cc4)CC3)cc21`, 104 µM; with `CC(C)CCNCC(O)CON=C1c2ccccc2-c2ccccc21` (stereo not drawn), 126 µM. `Oc1cccc(Nc2nc(NCC3CCCO3)c3ccccc3n2)c1` (stereo not drawn): the IC50 is 99.8 µM. As for `CCCc1nnc(NC(=O)c2cn(CC)c3cc(N4CCN(C)CC4)c(F)cc3c2=O)s1`, the IC50 is 117 µM. As for `Cc1ccccc1NC(=O)CCC(=O)N/N=C/c1cc([N+](=O)[O-])ccc1O`, the figure is 48.6 µM.

Regarding `CCOC(=O)c1ccc(-c2ccc(C3Nc4ccccc4C(=O)N3O)o2)cc1` (stereo not drawn), the IC50 is 142 µM. With `COc1ccccc1CNCCc1ccc(F)cc1` the figure was 35 µM; with `CCC(C)(C)c1ccc(OCCCC[n+]2ccccc2)c(C(C)(C)CC)c1`, 34.9 µM; with `CN(C)c1ccc(/C=C/c2ccc3c4ccccc4ccc3[n+]2-c2ccccc2)cc1`, 18.8 µM. As for `CCCCCCCCCCCCCCCCn1cc[n+](CC(C)=O)c1`, the figure is 33.9 µM; as for `CC[n+]1c(/C=C/C=C/c2ccc(N(C)C)cc2)sc2ccccc21`, 72.9 µM. Turning to `CCCCOc1ccc(Cc2cnc(N)nc2N)cc1`, the IC50 was 38.2 µM. As for `COc1cc(C)c(Cc2cnc(N)nc2N)cc1OC`, the figure is 2.03 µM; as for `CCn1cc(C(=O)NCCO)c(=O)c2cc(F)c(N3CCN(C)CC3)cc21`, 42.8 µM. With `C/C(CC(=O)Nc1ccc(Cl)c(C(F)(F)F)c1)=N\NC(=O)c1cc2ccccc2cc1O` the figure was 80.6 µM; with `Nc1nnc(-c2cccc(Cl)c2Cl)c(N)n1`, 60.5 µM; with `COC(=O)C1C(O)C(C)C(O)C(C)(O)/C=C\C=C(/C)C(=O)Nc2c(C)c(OC(C)=O)c3c(c2O)C(=O)C(C)=C2OCOC(=C23)/C(C)=C/C(C)(O)C(O)C(C)C1O` (stereo not drawn), 12.6 µM. For the molecule `Cc1ccc(C(=O)O)cc1N=Cc1cc(Br)cc(Br)c1O`, the IC50 was 85.6 µM.

As to `O=[N+]([O-])c1ccc(Sc2nc3ccccc3o2)c([N+](=O)[O-])c1`, the IC50 was 103 µM. With `CCCCNC(=O)c1cn(CC)c2cc(N3CCN(C)CC3)c(F)cc2c1=O` the figure was 41.8 µM.

On to `C/C(CC(=O)Nc1ccc(Cl)c(C(F)(F)F)c1)=N\NC(=O)c1ccccc1O`, for which the IC50 was 117 µM. Turning to `c1ccc(-c2nnc(-c3ccccn3)nc2NC2CCCCC2)cc1`, the IC50 was 78.3 µM.

Turning to `CCN1/C(=C/C(C)=C/c2sc3ccccc3[n+]2CC)Sc2ccccc21`, the IC50 was 12.9 µM. With `CCCC(=O)NC(c1ccccc1)c1ccc2cccnc2c1O` (stereo not drawn), the IC50 was 40 µM.

For `O=C(Oc1c(Cl)cc(Cl)c2cccnc12)c1ccco1`, the IC50 is 21.6 µM.

In the case of `Cc1sc2ncnc(N/N=C/c3ccccc3O)c2c1C`, the IC50 is 72.3 µM. With `CCCCCCCCCCOC(=O)Cn1c(COc2ccccc2)[n+](C)c2ccccc21` the figure was 19.2 µM; with `CCCCCCCCCCOC(=O)Cn1c(COc2ccccc2OC)[n+](C)c2ccccc21`, 21.4 µM; with `C/C(=C\C(=O)OCCCCCCCCC(=O)O)C[C@@H]1OC[C@H](C[C@@H]2O[C@H]2[C@@H](C)[C@H](C)O)[C@@H](O)[C@H]1O`, 9.67 µM.

Source of the values: PubChem BioAssay AID2401 (Southern Research Specialized Biocontainment Screening …, 2010).
